Measured values taken from the supplement of paper PMC10307832.

What was measured:
Test in all cases: relative viability (nuclei count vs DMSO), 5 days (fraction); higher = more cells survive
RO-3306 + Foretinib = compound: C1=CC2=C(C=CC(=C2)C=C3C(=O)NC(=NCC4=CC=CS4)S3)N=C1 [RO-3306] + COc1cc2c(Oc3ccc(NC(=O)C4(C(=O)Nc5ccc(F)cc5)CC4)cc3F)ccnc2cc1OCCCN1CCOCC1 [Foretinib] (partner 0.25 µM)
In short: (§1)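 Lung cancer cell lines in 1536-well plates were dosed by pin tool the day after seeding, either with one drug alone or with a fixed anchor-drug dose plus five library-drug doses (not always all listed) in √10 steps. After 5 days, cells were fixed and their nuclei stained in one step (final 0.05% Triton X-100, 1% formaldehyde, 1 ug/ml Hoechst), then counted on 4× images. Relative viability is the nuclei count in treated wells divided by that in vehicle wells. Values are medians of duplicate plates.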

RO-3306 + Linsitinib = compound: C1=CC2=C(C=CC(=C2)C=C3C(=O)NC(=NCC4=CC=CS4)S3)N=C1 [RO-3306] + C[C@]1(O)C[C@@H](c2nc(-c3ccc4ccc(-c5ccccc5)nc4c3)c3c(N)nccn32)C1 [Linsitinib] (partner 1 µM)
In short: as §1

RO-3306 + Tozasertib = compound: C1=CC2=C(C=CC(=C2)C=C3C(=O)NC(=NCC4=CC=CS4)S3)N=C1 [RO-3306] + Cc1cc(Nc2cc(N3CCN(C)CC3)nc(Sc3ccc(NC(=O)C4CC4)cc3)n2)n[nH]1 [Tozasertib] (partner 0.1 µM)
In short: as §1

[1] = compound: O=S(=O)(c1ccccc1)N(CC(F)(F)F)c1ccc(C(O)(C(F)(F)F)C(F)(F)F)cc1 + Nc1ncn([C@H]2C[C@H](O)[C@@H](CO)O2)c(=O)n1 [Decitabine] (partner 2 µM)
In short: as §1

Cell Line	relative viability (RO-3306 + Foretinib; first compound 0.01 µM)	relative viability (RO-3306 + Foretinib; first compound 0.03162 µM)	relative viability (RO-3306 + Foretinib; first compound 0.1 µM)	relative viability (RO-3306 + Foretinib; first compound 0.3162 µM)	relative viability (RO-3306 + Foretinib; first compound 1 µM)	relative viability (RO-3306 + Linsitinib; first compound 0.01 µM)	relative viability (RO-3306 + Linsitinib; first compound 0.03162 µM)	relative viability (RO-3306 + Linsitinib; first compound 0.1 µM)	relative viability (RO-3306 + Linsitinib; first compound 0.3162 µM)	relative viability (RO-3306 + Linsitinib; first compound 1 µM)	relative viability (RO-3306 + Tozasertib; first compound 0.01 µM)	relative viability (RO-3306 + Tozasertib; first compound 0.03162 µM)	relative viability (RO-3306 + Tozasertib; first compound 0.1 µM)	relative viability (RO-3306 + Tozasertib; first compound 0.3162 µM)	relative viability (RO-3306 + Tozasertib; first compound 1 µM)	relative viability ([1]; first compound 0.8 µM)	relative viability ([1]; first compound 2.53 µM)	relative viability ([1]; first compound 8 µM)
HCC-78	0.487	0.568	0.595	0.564	0.573	0.481	0.43	0.447	0.734	0.47	0.436	0.4	0.515	0.431	0.448	0.748	0.714	0.599
201T	1.28	1.27	1.01	1.03	0.613	1.11	1.01	1.08	1.09	0.999	1	0.933	0.925	0.975	0.964	0.846	0.858	0.834
NCI-H1993	0.924	0.794	0.789	0.727	0.809		0.711	0.678	0.732	0.695	0.649	0.582	0.558	0.573	0.605	0.515	0.563	0.579
EMC-BAC-2	0.977	0.892	0.976	1.03	1.05	0.901	0.678	0.797	0.851	0.773	0.394	0.306	0.295	0.263	0.254	0.973	0.908	0.974
HCC-15	1.19	0.954	0.963	1.01	0.93	0.924	0.755	0.863	0.892	0.839	0.438	0.342	0.345	0.383	0.301	0.562	0.419	0.5
EKVX	0.805	0.748	0.841	0.741	0.744	1.13	0.678	1.07	1.21	0.78	0.415	0.361	0.382	0.359	0.356	0.405	0.286	0.209
PC-14	0.968	0.739	0.935	1.04	0.917	0.989	0.773	0.969	1.02	0.991	0.78	0.572	0.527	0.562	0.488	0.197	0.19	0.209
LK-2	1.28		1.5	1.17	1.37	0.552	0.495	0.635	0.425	0.554	0.183		0.164	0.167	0.169	0.333	0.347	0.325
LCLC-97TM1	0.928	0.866	0.927	0.9	1.01		0.167	0.203	0.202	0.162	0.224	0.22	0.175	0.205	0.172		0.22	0.196
NCI-H520	0.843	0.663	0.854	0.694	0.839	1.05	0.872	0.82	1.2	0.824	0.44	0.481	0.39	0.426	0.394	0.457	0.478	0.493
NCI-H2405	1.05	1.06	1.03	1.03	0.961	0.994	0.873	0.896	0.921	0.944	0.746	0.723	0.704	0.675	0.628	0.841	0.701	0.797
NCI-H596	0.716	0.797	0.818	0.872	0.77	0.954	0.903	1.15	1.04	1.04	0.837	0.712	0.771	0.834	0.794	1.04	0.899	1.05
EPLC-272H	0.723	0.541	0.598	0.683	0.533	1.2	0.768	1.24	1.04	0.96	0.196	0.288	0.208	0.237	0.249	0.412	0.374	0.359
RERF-LC-KJ	0.844	0.683	0.795	0.906	0.958	0.956	0.831	0.902	0.974	1	0.634	0.434	0.546	0.521	0.463	0.752	0.701	0.687
HARA	1.08	0.58	0.884	0.882	0.767	0.861	0.789	0.902	1.02	1.35	0.146	0.11	0.453	0.0948	0.101	0.426		0.657
NCI-H838	1.13	0.966	1.06	1.16	1.06	1.11	0.742	1.05	1.15	0.92	0.308	0.283	0.255	0.258	0.264	0.474	0.46	0.482
NCI-H727	1.03	0.94	0.74	1.21	1.01	0.464	0.221	0.28	0.277	0.35	0.706	0.644	0.498	0.613	0.573	0.922	0.963	0.913
BEN	0.513	0.684	0.664	0.673	0.747	1.03	0.672	0.835	0.972	0.916	0.548	0.47	0.622	0.608	0.496	0.801	0.773	0.687
